Laboratory results as given in article PMC6930500, “Structure–Activity Relationships of 7-Substituted Dimethyltyrosine-Tetrahydroisoquinoline Opioid Peptidomimetics” (Molecules, 2019).

Experiments:
human KOR [1] = biological target: T1, human KOR (Homo sapiens, UniProt P41145); assay: [3H]-diprenorphine competitive displacement binding, KOR; settings: for Ki: membranes from CHO cells expressing human KOR, mean (SEM), n>=3 in duplicate
T1 construct: expressed in transfected cells; cell lines provided by Professor Lawrence Toll
Description: (§1) Each novel compound was evaluated for binding to and stimulation of KOR, MOR, and DOR. Binding affinity (Ki) was determined by competitive displacement of [^3H]-diprenorphine, a non-selective opioid receptor antagonist with similar affinity for each of the three receptors. Potency (EC50) and efficacy, expressed as percent stimulation compared to a standard agonist at each receptor, were determined by a [^35S]-GTPγS binding assay.
(§2) Membranes prepared from transfected Chinese Hamster Ovary cells stably expressing human KOR, human MOR, or human DOR were used for all assays. Cells were grown to confluence at 37 °C in 5% CO2 in 1:1 DMEM:F12 media with 10% v/v fetal bovine serum and 5% v/v penicillin/streptomycin. Membranes were prepared by washing confluent cells three times with ice cold phosphate-buffered saline (0.9% NaCl, 0.61 mM Na2HPO4, 0.38 mM KH2PO4, pH 7.4). Cells were detached from the plates by incubation in warm harvesting buffer (20 mM HEPES, 150 mM NaCl, 0.68 mM EDTA, pH 7.4) and pelleted by centrifugation at 200× g for 3 min. The cell pellet was suspended in ice-cold 50 mM Tris-HCl buffer, pH 7.4 and homogenized with a Tissue Tearor (Biospec Products, Inc, distributed by Cole-Parmer, Vernon Hills, IL, USA) for 20 s at setting 4. The homogenate was centrifuged at 20,000× g for 20 min at 4 °C, and the pellet was rehomogenized in 50 mM Tris-HCl pH 7.4 with a Tissue Tearor for 10 s at setting 2, followed by recentrifugation. The final pellet was resuspended in 50 mM Tris-HCl pH 7.4 and frozen in aliquots at −80 °C. Protein concentration was determined via Pierce BCA protein assay kit using bovine serum albumin as the standard.
(§3) Binding affinities for all test compounds at KOR, MOR, and DOR were determined by competitive displacement of [^3H]-diprenorphine as previously reported. In a 96-well plate format, cell membranes (5–10 µg of protein) and [^3H]-diprenorphine (0.2 nM) were incubated in Tris-HCl buffer (50 mM, pH 7.4) with various concentrations of test compound at 25 °C for 1 h, allowing the mixture to reach equilibrium. Nonspecific binding was determined using the opioid antagonist naloxone (10 µM), and total binding was determined using vehicle in the absence of competitive ligand. After incubation, membranes were filtered through Whatman GF/C 1.2 micron glass fiber filters and washed with 50 mM Tris-HCl buffer. The radioactivity remaining on the filters was then quantified by liquid scintillation counting after saturation with EcoLume liquid scintillation cocktail in a Microbeta 2450 (Perkin-Elmer, Waltham, MA, USA). Binding affinity (Ki) values were calculated using the Cheng–Prusoff equation via nonlinear regression analysis using GraphPad Prism software from at least three separate binding assays performed in duplicate.

human MOR [2] = biological target: T2, human MOR (Homo sapiens, UniProt P35372); assay: [3H]-diprenorphine competitive displacement binding, MOR; settings: for Ki: membranes from CHO cells expressing human MOR, mean (SEM), n>=3 in duplicate
T2 construct: expressed in transfected cells; cell lines provided by Professor Lawrence Toll
Description: as §1, §2, §3

human KOR [3] = biological target: T1, human KOR; assay: [35S]-GTPγS binding stimulation, KOR; assay type: biochemical; settings: mean (SEM); for EC50 KOR / EC50: CHO-human KOR membranes, * n = 2, dns = does not stimulate, average maximal stimulation <10% at up to 10 µM; for % Stimulation KOR / Emax: versus 10 µM standard agonist U69,593, dns = average maximal stimulation <10% at up to 10 µM
Description: as §1, §2
(§4) Agonist stimulation of KOR, MOR, and DOR by all test compounds was determined by [^35S]-guanosine 5′-O-[γ-thio]triphosphate ([^35S]-GTPγS) binding assays as previously reported. In a 96-well plate format, membranes from cells expressing opioid receptors as described above (10 µg of protein), [^35S]-GTPγS (0.1 nM), and guanosine diphosphate (30 µM) were incubated in GTPγS buffer (50 mM Tris-HCl, 100 mM NaCl, 5 mM MgCl2, 1 mM EDTA, pH 7.4) with various concentrations of test compound at 25 °C for 1 h. Basal stimulation was determined by incubation in the absence of any ligand. After incubation, membranes were filtered through Whatman GF/C 1.2 micron glass fiber filters and washed with GTPγS buffer with no EDTA. The radioactivity remaining on the filters was then quantified by liquid scintillation counting after saturation with EcoLume liquid scintillation cocktail in a Perkin-Elmer Microbeta 2450. Data are reported as percent stimulation compared to the effects of 10 µM standard agonists—U69,593 (KOR), DAMGO (MOR), or DPDPE (DOR). Percent stimulation and EC50 values were determined via nonlinear regression analysis using GraphPad Prism software from at least three separate assays performed in duplicate. Efficacy is expressed as percent stimulation relative to standard agonists.

human DOR [4] = biological target: T3, human DOR (Homo sapiens, UniProt P41143); assay: [35S]-GTPγS binding stimulation, DOR; assay type: biochemical; settings: mean (SEM), * n = 2; for EC50 DOR: CHO-human DOR membranes, dns = does not stimulate, average maximal stimulation <10% at up to 10 µM; for % Stimulation DOR: versus 10 µM standard agonist DPDPE, dns = average maximal stimulation <10% at up to 10 µM
T3 construct: expressed in transfected cells; cell lines provided by Professor Lawrence Toll
Description: as §1, §2, §4

human DOR [5] = biological target: T3, human DOR; assay: [3H]-diprenorphine competitive displacement binding, DOR; settings: membranes from CHO cells expressing human DOR; mean (SEM), n>=3 in duplicate
Description: as §1, §2, §3

human MOR [6] = biological target: T2, human MOR; assay: [35S]-GTPγS binding stimulation, MOR; assay type: biochemical; settings: mean (SEM), * n = 2; for EC50: CHO-human MOR membranes, dns = does not stimulate, average maximal stimulation <10% at up to 10 µM; for Emax: versus 10 µM standard agonist DAMGO, dns = average maximal stimulation <10% at up to 10 µM
Description: as §1, §2, §4

| Structure (SMILES) | Ki (human KOR [1]) | Ki (human MOR [2]) | EC50 KOR (human KOR [3]) | % Stimulation KOR (human KOR [3]) | EC50 DOR (human DOR [4]) | % Stimulation DOR (human DOR [4]) | Ki (human DOR [5]) | EC50 (human MOR [6]) | Emax (human MOR [6]) | higher affinity for KOR than for DOR (human KOR [1]; ratio of Ki values) | higher affinity for MOR than for DOR (human MOR [2]; ratio of Ki values) | EC50 (human KOR [3]) | Emax (human KOR [3]) |
| --- | --- | --- | --- | --- | --- | --- | --- | --- | --- | --- | --- | --- | --- |
| Cc1cc(O)cc(C)c1C[C@H](N)C(=O)N1CCc2ccc(CN3CCOCC3)cc2C1 [Compound 8n, (S)-2-amino-3-(4-hydroxy-2,6-dimethylphenyl)-1-(7-(morpholinomethyl)-3,4-dihydroisoquinolin-2(1H)-yl)propan-1-one] | 43 nM | 39 nM | dns | dns | dns | dns | 5.6 nM | 860 nM | 38% |  |  |  |  |
| Cc1cc(O)cc(C)c1C[C@H](N)C(=O)N1CCc2ccc(Cc3ccccc3O)cc2C1 [Compound 8b, (S)-2-amino-3-(4-hydroxy-2,6-dimethylphenyl)-1-(7-(2-hydroxybenzyl)-3,4-dihydroisoquinolin-2(1H)-yl)propan-1-one] | 0.32 nM | 1.2 nM |  |  | dns * | dns * | 2.5 nM | 43 nM | 60% | eight-fold | two-fold | 11 nM | 89% |
| Cc1cc(O)cc(C)c1C[C@H](N)C(=O)N1CCc2ccc(Cc3cccc4ccccc34)cc2C1 [Compound 8o, (S)-2-amino-3-(4-hydroxy-2,6-dimethylphenyl)-1-(7-(naphthalen-1-ylmethyl)-3,4-dihydroisoquinolin-2(1H)-yl)propan-1-one] | 4.7 nM | 5.2 nM |  |  | dns | dns | 3.2 nM | 132 nM | 59% |  |  | 349 nM | 83% |
| Cc1cc(O)cc(C)c1C[C@H](N)C(=O)N1CCc2ccc(Cc3ccc4ccccc4c3)cc2C1 [Compound 8p, (S)-2-amino-3-(4-hydroxy-2,6-dimethylphenyl)-1-(7-(naphthalen-2-ylmethyl)-3,4-dihydroisoquinolin-2(1H)-yl)propan-1-one] | 142 nM | 5.8 nM | dns | dns | dns | dns | 3.5 nM | 176 nM | 51% |  |  |  |  |
| Cc1cc(O)cc(C)c1C[C@H](N)C(=O)N1CCc2ccc(Cc3cccc4ccncc34)cc2C1 [Compound 8r, (S)-2-amino-3-(4-hydroxy-2,6-dimethylphenyl)-1-(7-(isoquinolin-8-ylmethyl)-3,4-dihydroisoquinolin-2(1H)-yl)propan-1-one] | 2.7 nM | 1.8 nM |  |  | dns * | dns * | 0.69 nM | 24 nM | 36% |  |  | 65 nM | 42% |
| COc1cccc(Cc2ccc3c(c2)CN(C(=O)[C@@H](N)Cc2c(C)cc(O)cc2C)CC3)c1 [Compound 8e, (S)-2-amino-3-(4-hydroxy-2,6-dimethylphenyl)-1-(7-(3-methoxybenzyl)-3,4-dihydroisoquinolin-2(1H)-yl)propan-1-one] | 3 nM | 2.7 nM |  |  | dns | dns | 1.7 nM | 24 nM | 48% |  |  | 148 nM | 74% |
| Cc1cc(O)cc(C)c1C[C@H](N)C(=O)N1CCc2ccc(Cc3ccncc3)cc2C1 [Compound 8k, (S)-2-amino-3-(4-hydroxy-2,6-dimethylphenyl)-1-(7-(pyridin-4-ylmethyl)-3,4-dihydroisoquinolin-2(1H)-yl)propan-1-one] | 44 nM | 42 nM |  |  | dns | dns | 2.6 nM | 179 nM | 28% |  |  | 1180 nM | 44% |
